In paper PMC6791832, “In vitro inhibition of human red blood cell acetylcholinesterase (AChE) by temephos-oxidized products” (Scientific Reports, 2019):

Tests used:
[1] = target: T1, human red blood cell acetylcholinesterase (RBC AChE) (Homo sapiens, UniProt P22303); assay: Human RBC AChE inhibition assay (Ellman method, hemolyzed whole blood); type: biochemical; details: for IC50: hemolyzed samples preincubated with compound for 15 min at 37 °C, three independent experiments in duplicate
T1 construct: from tissue; host or cells: whole blood (hemolyzed, 1:100 in Triton X-100) from one healthy adult volunteer
Experimental: RBC AChE and BuChE assays were performed on whole human blood and serum, respectively. In this study, all methods were conducted in accordance with guidelines and regulations to comply with the GLP and chemical wastes management established by the Cinvestav-IPN. The sampling protocol was approved by the Bioethics Commission of Nayarit State, Mexico (CEBN/011/2017). The subject gave written informed consent for their participation and blood samples were collected early in the morning. A human blood sample was collected from a healthy adult volunteer from Mexico City.
RBC AChE activity was evaluated according to the method reported by Ellman et al.[12] with some modifications. Briefly, fresh human whole blood samples were diluted (1:100) with Triton X-100 (0.03% in phosphate buffer 0.1 M, pH 7.4). The enzymatic assay media consisted of 500 µL diluted blood, 1 mL of phosphate buffer 0.1 M, pH 7.4, 0.05 mL of DTNB (10 mM), and 5 µL of ethopropazine (6 mM), which were mixed and incubated at 37 °C for 10 min. The reaction was started by the addition of 25 µL of substrate ATCh (28.3 mM) and absorbance was monitored at 436 nm during 3 min with a UV-Vis spectrophotometer (Thermo Scientific GENESYS 10S). AChE activity was corrected for hemoglobin (Hb) content and was reported in U/g Hb. The Hb content was determined at 540 nm using the Drabkin reagent. The molar extinction coefficient of the TNB hydrolysis product was ε = 10,600 M^−1 cm^−1.
To determine the inhibitory effect on human RBC AChE activity, the hemolyzed samples were preincubated with Tem and its metabolites for 15 min at 37 °C. The RBC AChE activity was evaluated as previously described by Bernal-Hernández et al.[13] in three independent experiments conducted in duplicate. Stock solutions of Tem metabolites were individually prepared in ethanol (Tem-SO, 4.14 mM; Tem-dox-SO, 4.44 mM, and Tem-dox-SO2, 4.20 mM). These solutions were used to prepare other diluted solutions in phosphate buffer (0.1 M, pH 7.4) to achieve the following concentrations: 0.1 to 10 μM Tem-SO, 0.05 to 5 μM Tem-dox-SO, and 0.02 to 2 μM Tem-dox-SO2. […] Log IC50, IC50, and R^2 values were estimated from the normalized AChE or BuChE activity with respect to the control assays (absence of the metabolite) and plotted as a function of the logarithm of metabolite concentration using Prism 8 software (GraphPad Software).

[2] = rats, orally administered; cited from earlier work

T1 sequence (P22303 32-617 isoform P22303-2 limits assumed): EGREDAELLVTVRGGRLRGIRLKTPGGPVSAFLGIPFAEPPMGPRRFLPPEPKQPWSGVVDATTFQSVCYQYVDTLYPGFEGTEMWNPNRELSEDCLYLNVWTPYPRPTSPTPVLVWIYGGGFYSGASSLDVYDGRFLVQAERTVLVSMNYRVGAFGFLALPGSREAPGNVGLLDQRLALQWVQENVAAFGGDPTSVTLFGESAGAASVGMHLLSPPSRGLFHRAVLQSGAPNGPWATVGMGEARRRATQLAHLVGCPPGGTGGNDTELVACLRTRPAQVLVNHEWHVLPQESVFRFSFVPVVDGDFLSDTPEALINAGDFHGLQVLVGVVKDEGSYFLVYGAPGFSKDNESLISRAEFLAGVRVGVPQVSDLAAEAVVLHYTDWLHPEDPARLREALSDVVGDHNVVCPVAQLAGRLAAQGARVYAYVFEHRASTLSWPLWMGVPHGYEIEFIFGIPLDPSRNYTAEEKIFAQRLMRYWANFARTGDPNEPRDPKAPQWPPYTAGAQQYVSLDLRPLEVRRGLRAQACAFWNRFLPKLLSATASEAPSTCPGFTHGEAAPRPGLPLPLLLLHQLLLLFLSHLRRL

For `COP(=O)(OC)Oc1ccc(S(=O)(=O)c2ccc(OP(=O)(OC)OC)cc2)cc1` [Tem-dox-SO2], which IC50 [1] is on record?
Its IC50 is 24.9 nM.

Which IC50 [1] does the source give for `COP(=O)(OC)Oc1ccc([S+]([O-])c2ccc(OP(=O)(OC)OC)cc2)cc1` [Tem-dox-SO] here?
Its IC50 is 97.7 nM.

With `COP(=S)(OC)Oc1ccc(Sc2ccc(OP(=S)(OC)OC)cc2)cc1` [Tem, O,O,O′,O′-tetramethyl O,O′-thiodi-p-phenylene bis(phosphorothionate)] as the compound, how does the “effect on human RBC AChE activity” value ([1]; even at higher concentrations than 50 µM) read?
The value was “did not exhibit any effect”.

What about the “absorbed into the bloodstream” value [2] of the same compound?
Its value is “at least 40%”.

Which IC50 [1] does the source give for `COP(=S)(OC)Oc1ccc([S+]([O-])c2ccc(OP(=S)(OC)OC)cc2)cc1` [Tem-SO] here?
The IC50 was 553 nM.
